Measurements as given in patent publication US6558923B2 (priority 1998, dated 2003).

How the values were obtained:
Format in all cases: cell-based, HIV-1
[1] = system: NL4-3 reference virus; assay: microbe, parasite or virus in culture; conditions: Human immunodeficiency virus 1, NL43, read-out: Geometric-mean IC90
[2] = system: recombinant virus carrying gag-protease sequences from patient plasma
[3] = system: recombinant virus carrying protease sequences from patient plasma

Compound	IC90 [1] [nM]	Reduction in sensitivity [2] [fold]	Sensitivity [2]	Sensitivity correlated with genotype [2]	Effect of increasing protease inhibitor concentrations on infectivity of recombinant particles [3]	Change in IC90 [3]	IC90 of pre-therapy recombinant viruses compared with the other protease inhibitors [3]	Susceptibility of pre-therapy virus from patient B versus pre-therapy virus from patient A [3]
CC(C)CN(C[C@@H](O)[C@H](Cc1ccccc1)NC(=O)O[C@H]1CCOC1)S(=O)(=O)c1ccc(N)cc1 [Amprenavir, amprenavir]	54	–	–	–	–	–	–	–
CC(C)(C)NC(=O)[C@@H]1CN(Cc2cccnc2)CCN1C[C@@H](O)C[C@@H](Cc1ccccc1)C(=O)N[C@H]1c2ccccc2C[C@H]1O [Indinavir]	16	10	further reduced	reduced sensitivity	clear and gradual inhibition of single-cycle particle infectivity	–	–	–
Cc1c(O)cccc1C(=O)N[C@@H](CSc1ccccc1)[C@H](O)CN1C[C@H]2CCCC[C@H]2C[C@H]1C(=O)NC(C)(C)C [Nelfinavir, nelfinavir]	3.5	–	–	reduced sensitivity	–	–	–	–
CC(C)c1nc(CN(C)C(=O)N[C@H](C(=O)N[C@@H](Cc2ccccc2)C[C@H](O)[C@H](Cc2ccccc2)NC(=O)OCc2cncs2)C(C)C)cs1 [Ritonavir]	23	–	–	reduced sensitivity	–	–	–	–
CC(C)(C)NC(=O)[C@@H]1C[C@@H]2CCCC[C@@H]2CN1C[C@@H](O)[C@H](Cc1ccccc1)NC(=O)[C@H](CC(N)=O)NC(=O)c1ccc2ccccc2n1 [Saquinavir]	28	4	further reduced	resistance	clear and gradual inhibition of single-cycle particle infectivity	prominent increase	always significantly lower	clearly less susceptible
